According to paper PMC8371902, “Phase 1 study of M2698, a p70S6K/AKT dual inhibitor, in patients with advanced cancer” (Journal of Hematology & Oncology, 2021):

Experiments:
pS6 in tumor tissue = system: pS6 in tumor tissue; set-up: method as in PMID 27186432; conditions: preclinical ref 21; cited from earlier work
[1] = in vivo
Source text: (§1) A monotherapy population PK model was developed, consisting of a two-compartment model with four absorption transit compartments and first-order elimination (Additional file 1: Table S5).

[2] = Monotherapy population PK model (two-compartment); conditions: in vivo
Source text: as §1

[3] = system: patients with advanced metastatic cancer; assay: Association between PK and safety (electrocardiogram ∆QTcF, fasting glucose); type: in vivo, human
[4] = set-up: method as in PMID 27186432; conditions: preclinical studies ref 21; cited from earlier work
[5] = system: phospho-S6 (pS6) in peripheral blood mononuclear cells; assay: pS6 in PBMCs by flow cytometry, PK/PD Emax model
Procedure: Pharmacodynamic biomarker analysis consisted of measuring levels of phospho-S6 (pS6) by flow cytometry in peripheral blood mononuclear cells (PBMCs) collected on cycle 1, days 1 and 15 at predose, 2, 4, and 8 h, and at predose on cycles ≥ 2, days 1, 8 and 15; and by immunohistochemistry in tumor biopsies obtained at baseline and on treatment (cycle 2, day 1; from the same tumor when possible).

NC(=O)c1cccc2c(N[C@H](CN3CCC3)c3ccc(Cl)c(C(F)(F)F)c3)ncnc12 [M2698]
Inhibition of pS6 in tumor tissue (pS6 in tumor tissue): dose-dependently inhibits pS6 in tumor tissue
Additive RSV (residual variability), population PK estimate [1]: 3.44
Proportional RSV (residual variability), population PK estimate [1]: 0.163
ALB on Vc, population PK estimate [2]: 0.0247
BSA on Vc, population PK estimate [2]: 1.17
CL (clearance), population PK estimate [2]: 7.06 L/h
KA (absorption rate constant), population PK estimate [2]: 2.02 h⁻¹
Q (flow rate), population PK estimate [2]: 18.0 L/h
Vc (volume of distribution of the central compartment), population PK estimate [2]: 292 L
Vp (volume of distribution of the peripheral compartment), population PK estimate [2]: 53.0 L
Changes in mean electrocardiogram data ([3]; across all cohorts): no clinically relevant changes
Correlation between exposure and fasting glucose levels ([3]; in vivo): no correlation
Blood–brain barrier crossing [4]: capacity to cross the blood–brain barrier
EC50, PK/PD model of pS6 in PBMCs (plasma concentration for 50% inhibition) ([5]; NONMEM estimate): 1643 ng/mL
Emax, PK/PD model of pS6 in PBMCs ([5]; NONMEM estimate): 0.148
Inhibition of pS6 levels in PBMCs ([5]; in vivo): dose- and concentration-dependent inhibition
